Eleven molecules from ChEMBL document CHEMBL1201862, “PubChem BioAssay data set” (2004) can be followed below.

Some test systems named below: IGROV-1; RXF 393; 786-0; SK-MEL-28; COLO 205; DU-145; HCT-15; CAKI-1; EKVX; HCT-116; SK-MEL-2; A549; SF-539; SN12C; OVCAR-4; SK-OV-3; SF-295; MDA-MB-231; HT-29; HL-60.
What all share (experiment): growth of human tumour cells (NCI), 48 h

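The compound was tested at five concentrations on cells cultured in 96-well plates, with a 48-hour exposure period. The concentration for 50% growth inhibition is given as GI50.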 Activity calls are given as the source filed them. Cut-off read from the data, not from the text of the source: active = GI50 up to about 1.1 µM and inactive = higher.

Turning to `O=C(O)CCc1nc(-c2ccccc2-n2cccc2)no1`, the GI50 is 73.1 µM (inactive) with IGROV-1; > 100 µM (inactive) with RXF 393; > 100 µM (inactive) with 786-0; > 100 µM (inactive) in the test with SK-MEL-28; > 100 µM (inactive) in the test on COLO 205; > 100 µM (inactive) in the test on DU-145. The GI50 was over 100 µM in the test on HCT-15; > 100 µM (inactive) with CAKI-1; > 100 µM (inactive) in the test on EKVX; > 100 µM (inactive) with HCT-116; > 100 µM (inactive) in the test with SK-MEL-2; > 100 µM (inactive) in the test on A549. Further, the GI50 in the test with SF-539 is > 100 µM (inactive); with SN12C, > 100 µM (inactive); with OVCAR-4, 11.8 µM (inactive); in the test on SK-OV-3, > 100 µM (inactive); in the test with SF-295, 49.9 µM (inactive); in the test on MDA-MB-231, > 100 µM (inactive). Moreover, in the test on HT-29, the GI50 was 57.3 µM (inactive).

Consider `Oc1ccc2c(c1)-c1c(c3ccccc3n1CCN1CCOCC1)CC2`, for which the GI50 in the test with IGROV-1 was 15.3 µM (inactive); in the test with RXF 393 it was 66.7 µM (inactive); in the test on 786-0, 33.7 µM (inactive); in the test on COLO 205, 41.7 µM (inactive); with DU-145, 46 µM (inactive); in the test with HL-60 it was > 100 µM (inactive). Further, the GI50 in the test on HCT-15 was 39.7 µM; in the test on CAKI-1 it was 32.6 µM (inactive); in the test on EKVX, 53.2 µM (inactive); in the test with HCT-116, 31.4 µM (inactive); with SK-MEL-2, 25 µM (inactive); in the test with SF-539 it was 46 µM (inactive). Besides, the GI50 with SN12C is > 100 µM (inactive); with SK-OV-3 it was 27.5 µM (inactive); in the test on SF-295 it was 48.3 µM (inactive); with MDA-MB-231 it was > 100 µM (inactive); in the test on HT-29, 39.6 µM (inactive).

Turning to `O=c1c2cc(-c3ccccc3)sc2nc2n1N=C(c1ccc(Cl)cc1)CS2`, the GI50 with IGROV-1, in the test with RXF 393, in the test on 786-0, in the test with SK-MEL-28, with COLO 205 and in the test on DU-145 was > 100 µM (inactive) in each case. The GI50 with HL-60 was > 100 µM (inactive); in the test with HCT-15 it was over 100 µM; with CAKI-1 it was > 100 µM (inactive); in the test on EKVX, > 100 µM (inactive); in the test on HCT-116, > 100 µM (inactive); in the test on A549, > 100 µM (inactive). For the same molecule, the GI50 in the test on SF-539, with SN12C, in the test on OVCAR-4, in the test with SK-OV-3, in the test on SF-295 and in the test with MDA-MB-231 was > 100 µM (inactive) each time. Besides, in the test on HT-29, the GI50 was > 100 µM (inactive).

As to `COc1ccc(C2SCC(=O)N2c2ccc(-c3ccc(-n4c(-c5ccccc5)nc5ccccc5c4=O)cc3)cc2)cc1OC` (stereo not given), the GI50 in the test with IGROV-1 is 37.7 µM (inactive); in the test with RXF 393 it was > 100 µM (inactive); with 786-0, 44.4 µM (inactive); with SK-MEL-28, 57 µM (inactive); in the test on COLO 205, 18.4 µM (inactive); in the test on DU-145 it was 98.2 µM (inactive). Also, the GI50 in the test on HL-60 was 30.8 µM (inactive); in the test with HCT-15, over 100 µM; with CAKI-1 it was 88.5 µM (inactive); in the test on EKVX, 81.8 µM (inactive); in the test with HCT-116, 67.8 µM (inactive); in the test on A549, 27.9 µM (inactive). For the same molecule, the GI50 in the test with SF-539 is 30.5 µM (inactive); in the test on SN12C it was > 100 µM (inactive); in the test with OVCAR-4, > 100 µM (inactive); with SK-OV-3, 40.3 µM (inactive); in the test with SF-295, 16.8 µM (inactive); in the test with MDA-MB-231, 25.8 µM (inactive). The GI50 in the test on HT-29 is 45.2 µM (inactive).

In the case of `CCCCC1(NN=C2CCCCC2)C(=O)N(c2ccccc2)N(c2ccccc2)C1=O`, the GI50 with IGROV-1, in the test with RXF 393, with 786-0, in the test on SK-MEL-28, with COLO 205 and in the test with DU-145 was > 100 µM (inactive) in each case. The GI50 with HL-60 was 18.1 µM (inactive); in the test with HCT-15, over 100 µM; in the test with CAKI-1 it was > 100 µM (inactive); with EKVX it was > 100 µM (inactive); in the test with HCT-116 it was > 100 µM (inactive); in the test with A549, > 100 µM (inactive). Further, the GI50 in the test with SF-539, with SN12C, in the test with OVCAR-4, with SK-OV-3, in the test with SF-295 and in the test with MDA-MB-231 was > 100 µM (inactive) throughout. In addition, the GI50 in the test on HT-29 is > 100 µM (inactive).

In the case of `COC(=O)[C@@H]1CC(C(CN)c2cn(C(=O)OC(C)(C)C)c3ccccc23)C(=O)N1C(=O)OC(C)(C)C` (stereo not given in full), the GI50 with IGROV-1 is 17.9 µM (inactive); with RXF 393, 18 µM (inactive); in the test on 786-0, 31.3 µM (inactive); in the test on SK-MEL-28 it was 17.3 µM (inactive); in the test on COLO 205 it was 17.3 µM (inactive); in the test with DU-145 it was 44.2 µM (inactive). The GI50 is 21.8 µM (inactive) in the test with HL-60; 28.1 µM with HCT-15; 29.2 µM (inactive) in the test with CAKI-1; 19.4 µM (inactive) with EKVX; 44.3 µM (inactive) in the test on HCT-116; 22.4 µM (inactive) with SK-MEL-2. For the same molecule, the GI50 was 35.3 µM (inactive) with A549; 13.8 µM (inactive) in the test on SF-539; 17.8 µM (inactive) in the test on SN12C; 20.9 µM (inactive) in the test on OVCAR-4; 21.6 µM (inactive) in the test with SF-295; 22.4 µM (inactive) in the test on MDA-MB-231. Besides, the GI50 in the test on HT-29 was 24.8 µM (inactive).

Take `CC1=NNC(=O)C1C1CC(c2c[nH]c3ccccc23)=NNC1=O` (stereo not given): the GI50 was 0.773 µM (active) in the test with IGROV-1; > 100 µM (inactive) in the test with RXF 393; > 100 µM (inactive) in the test with 786-0; > 100 µM (inactive) with SK-MEL-28; > 100 µM (inactive) in the test on COLO 205; > 100 µM (inactive) with DU-145. Also, the GI50 with HL-60 is > 100 µM (inactive); in the test on HCT-15, over 100 µM; with CAKI-1 it was > 100 µM (inactive); with EKVX, 11.9 µM (inactive); in the test on HCT-116 it was > 100 µM (inactive); in the test with SK-MEL-2, > 100 µM (inactive). The GI50 with A549, in the test with SF-539, in the test on SN12C, in the test with SK-OV-3, with SF-295 and in the test on MDA-MB-231 was > 100 µM (inactive) in each case. The GI50 in the test on HT-29 is > 100 µM (inactive).

Take `CC(C)(C)OC(=O)NC(Cc1ccc(OCc2ccccc2)cn1)C(=O)N1CCSCC1` (stereo not given): the GI50 was 75.9 µM (inactive) with IGROV-1; 33.3 µM (inactive) with RXF 393; 57.9 µM (inactive) in the test with 786-0; 78.7 µM (inactive) with SK-MEL-28; 18.6 µM (inactive) in the test with COLO 205; 51.9 µM (inactive) with DU-145. Further, the GI50 in the test with HL-60 was 16.4 µM (inactive); in the test on HCT-15 it was 46.7 µM; in the test on CAKI-1 it was 73.3 µM (inactive); in the test with EKVX, 41.6 µM (inactive); with HCT-116 it was 48.6 µM (inactive); in the test on SK-MEL-2 it was 38.7 µM (inactive). Moreover, the GI50 in the test with A549 is 56.4 µM (inactive); in the test on SF-539, 49 µM (inactive); in the test with SN12C, 44.6 µM (inactive); with SK-OV-3, 86.3 µM (inactive); with SF-295, 37.2 µM (inactive); in the test on MDA-MB-231 it was > 100 µM (inactive). In addition, in the test on HT-29, the GI50 is 32.7 µM (inactive).

On to `CC1=C/C(=N\NS(=O)(=O)c2ccc([N+](=O)[O-])cc2)CC(C)(C)C1`, for which the GI50 is 57.5 µM (inactive) in the test with IGROV-1; > 100 µM (inactive) in the test with RXF 393; > 100 µM (inactive) in the test with 786-0; > 100 µM (inactive) in the test on SK-MEL-28; > 100 µM (inactive) in the test with COLO 205; > 100 µM (inactive) in the test on DU-145. Also, the GI50 in the test on HL-60 was > 100 µM (inactive); in the test on HCT-15, 49.8 µM; in the test on CAKI-1, > 100 µM (inactive); with EKVX, > 100 µM (inactive); in the test on HCT-116, 84.3 µM (inactive); with SK-MEL-2 it was > 100 µM (inactive). In addition, the GI50 in the test with A549 is 48.8 µM (inactive); with SF-539, > 100 µM (inactive); in the test on SN12C, 73.5 µM (inactive); in the test on SK-OV-3 it was > 100 µM (inactive); with SF-295 it was > 100 µM (inactive); in the test on MDA-MB-231, > 100 µM (inactive).

Take `CC1C2(C)OC(=N)C(C#N)(C(c3cccc([N+](=O)[O-])c3)O2)C1(C#N)C#N` (stereo not given): the GI50 in the test on IGROV-1 is 42.6 µM (inactive); in the test with RXF 393, 21.4 µM (inactive); in the test with 786-0, 17.4 µM (inactive); with SK-MEL-28 it was 17.7 µM (inactive); in the test on COLO 205 it was 13.8 µM (inactive); with DU-145 it was 28.4 µM (inactive). The GI50 in the test on HL-60 was 13.8 µM (inactive); in the test with CAKI-1, 12.1 µM (inactive); in the test on EKVX, 27.9 µM (inactive); with HCT-116 it was 18.5 µM (inactive); with SK-MEL-2, 19.9 µM (inactive); in the test on A549, > 100 µM (inactive). The GI50 is 18.9 µM (inactive) in the test with SF-539; 14.9 µM (inactive) in the test with SN12C; > 100 µM (inactive) with SK-OV-3; 84.7 µM (inactive) with SF-295; 14.6 µM (inactive) with MDA-MB-231; 26.4 µM (inactive) in the test with HT-29.

As for `CC(C)(C)OC(=O)CN1C(=O)CC1CC(=O)c1ccccc1` (stereo not given), the GI50 is 18.3 µM (inactive) with IGROV-1; 18.5 µM (inactive) in the test on RXF 393; 17.5 µM (inactive) in the test with 786-0; 19.5 µM (inactive) in the test with SK-MEL-28; 26.6 µM (inactive) with COLO 205; 17.9 µM (inactive) with DU-145. The GI50 is 20 µM (inactive) in the test with HL-60; 18.2 µM with HCT-15; 22.4 µM (inactive) in the test on CAKI-1; 17.2 µM (inactive) with EKVX; 24.8 µM (inactive) with HCT-116; 16.8 µM (inactive) in the test on SK-MEL-2. The GI50 in the test with A549 was > 100 µM (inactive); in the test on SF-539 it was 19.4 µM (inactive); in the test on SN12C it was 23.2 µM (inactive); in the test on OVCAR-4, 30.5 µM (inactive); with SF-295, 26.9 µM (inactive); with MDA-MB-231, 17.2 µM (inactive). Also, the GI50 in the test with HT-29 was 17.2 µM (inactive).
